Columns and labels:
[1] = test system: activated rheumatoid arthritis; assay: activity value AKT from ICG fluorescence imaging of both hands, two examinations four weeks apart; format: in vivo, human; settings: for activity value AKT: current examination vs four weeks before, values less than 1 indicate a decrease in disease activity
Description: A correction factor (CF) is determined after the calculation of the average AUCRef value above the fingernails. The quotient of the mean AUCRef value and the correction factor (CF) should result in a reference factor (RF) with a value of 100. CF=mean AUCRef/100(RF) 100(RF)=mean AUCRef/CF
Each of the obtained 28 AUC values of the interphalangeal articulations of the hands is processed by mathematical correlation. By dividing the AUC values by CF, corrected AUC values (AUCcorr) are obtained for the ROI above the respective interphalangeal articulations of the hands. AUCcorr=AUC/CF
The inventive process is further characterized by the layout of a method that allows the comparison of different examinations on the same patient. This method should compensate the different levels of the fluorescence signal intensity that result from the variable pharmacokinetics of ICG. The correction factor (CF) is calculated for each measurement leading to the formation of the signal intensity curve. Any number or any type of examinations can be assigned to one another by means of the CF of the ROI above the fingernails. Due to the division of the AUCcorr values from an arbitrary examination by CF, they can be directly compared with other AUCcorr values from previous examinations. The equation for calculating an arbitrary examination n is as follows: AUCcorr(n)=AUC(n)/CF(n)
The value AKT for the time-dependent disease activity results from the possibility of direct comparability of the corrected AUC values. The formula for calculating the activity value AKT of any two examinations over time is as follows: AKT=AUCcorr(n)/AUCcorr(n-1)
Values greater than 1 point out an increasing disease activity, respectively a deterioration of the result, whereas values less than 1 indicate an enhancement of the result, respectively a decrease in disease activity.
Methods and implementation: Intravenous injection of indocyanine green (ICG pulsion) at a dose of 0.2 mg/kg. Bolus injection for about 5 s, the measurement time 0 corresponds to the termination of the Injection. Measuring device: simultaneous measurement of both the hands, illumination surface about 20 cm×30 cm, LEDs, excitation wavelength of 775 nm, detection >800 nm (2 long-pass interference filters, each of whose λ50%=800 nm), iCCD camera with standard lens (water/Peltier-type cooling).
Data collection (image capture) for both the hands up to 10 minutes after the injection with a cycle time of 3 s (20 frames/min). […]
The activity values AKT are calculated by dividing each of the corrected results of the […] examination by each of the corresponding corrected results of the second examination respectively.

[2] = test system: activated rheumatoid arthritis; assay: clinical examination and patient report after four weeks of intensive therapy; format: in vivo, human; settings: four weeks after start of therapy
Description: Patient, weight 59 kg. Patient with an acute progression of rheumatoid arthritis and damage to the joints DIP-R3, PIP-R3 and PIP-R4. The patient was examined twice: the current examination as well as four weeks before the current examination. An intensive therapy using Infliximab® was administered upon the diagnosis of an activated rheumatoid arthritis four weeks before the current examination.

Substance: Infliximab [Infliximab®]
- activity value AKT ([1]; joint DIP-R3): 0.71
- activity value AKT ([1]; joint PIP-R3): 0.65
- activity value AKT ([1]; joint printed PIP-84): 0.911
- effectiveness of the ongoing intensified therapy ([1]; patient, after four weeks of therapy): could be quantitatively demonstrated just after four weeks
- subjective perception of the disease (morning stiffness, pain sensations) ([2]; patient report): improvement in the subjective perception of the disease
- clinical examination result (inflammation of the diseased joints) ([2]; patient): essentially unchanged result with only a low-level decline in the inflammation of the diseased joints
